The values below come from patent US20250186475A1, “METHODS OF TREATING MEDICAL CONDITIONS USING ISLATRAVIR OR A RELATED COMPOUND” (ROME Therapeutics, Inc., priority 2022, published 2025).

Bounds are passed on as bounds.

Holding throughout (format): cell-based
For assay [1], the target named is T1, LINE1 reverse transcriptase (Homo sapiens, UniProt O00370).
T1 construct: expressed in transfected cells
Description: Stable artificial-intron Cis LINE1 reporter assay (HeLa Tet-On 3G). Conditions: HeLa L1 reporter cells, doxycycline induced, 72 h; read-out: IC50 for inhibition of FLuc luminescence. An excerpt:
A stable HeLa Tet-On 3G (Takara, cat no 631183) cell line expressing a bi-directional inducible LINE1 construct was generated as described in Xie, Y. et al. “Cell division promotes efficient retrotransposition in a stable L1 reporter cell line,” Mobile DNA (2013) 4:10. Single cell clones were screened for high Luciferase expression and the highest expression Firefly expressing clone was chosen for compound testing.
Test compound was serially diluted in DMSO and spotted in 96-well plates. Subsequently the HeLa L1 artificial-intron reporter cells were plated into the compound-containing wells (8,000 cells/well), and the cells were induced for reporter expression with doxycycline (Sigma cat no D9891) at a final concentration of 500 ng/mL. Luminescence was measured 72 h after plating using the Dual-Glo Luciferase Assay System (Promega cat no E2940) following the manufacturer's instructions. The Firefly Luciferase activity was used to report LINE1 activity.
For orientation: A reporter such as luciferase makes a cellular process visible.

Assay [2] concerns TE-1 cells. Description: Cancer cell viability assay with 3D cell colonies (CellTiter-Glo), TE-1. Conditions: Homo sapiens, TE-1, 168 h, 7 days. As to the method: Ovarian cancer cell line SK-OV-3 cells were cultured in McCoy's 5a media containing 10% FBS. Ovarian cancer cell line OVCAR-8 cells were cultured in RPMI media containing 10% FBS. Additional cancer cell lines were cultured in the following media: • Ovarian cancer SW756 cells—L-15 (100% air)+10% FBS • Esophageal cancer TE-1 cells—RPMI-1640+10% FBS • Esophageal cancer KYSE-410 cells—RPMI-1640+5˜10% FBS • Esophageal cancer KYSE-70 cells—RPMI-1640+10% h.i.FBS. • Pharyngeal cancer FaDu cells—MEM+0.01 mM NEAA+10% FBS
Cell colony formation was tested using a 3D methylcellulose-based CellTiter-Glo (CTG) viability assay (Cat. No: G7573, Promega). Briefly, cells were inoculated into 96-well plates (at 1,500 cells per well) into a solution of 0.65% methylcellulose in growth media and incubated overnight at 37° C. in 5% CO2. The next day, serially diluted test compound (islatravir) or positive control (cisplatin, Cat. No. 6J015A89, Qilu Pharma) were added at the indicated concentrations, and the cells were incubated for 7 days. On day seven, 100 μL of CTG reagent was added, and the plates were incubated at room temperature for 20 min. Luminescence was read on an Envision Multi Label Reader according to manufacturer's instructions. IC50 values were determined using the following calculation: […]
A general note: ATP-based viability assays read luminescence as a measure of living cells.

Assay [3] has as its system THP1-Dual™ KO-TREX1 cells. Kind of assay: Cellular assay for altering IFN production in THP1 TREX1 KO cells. Conditions: in the presence of 1 μM 5-aza-2′-deoxycytidine, five days. The protocol: THP1-Dual™ KO-TREX1 cells were purchased from Invivogen (cat #thpd-kotrex). The THP1-Dual™ KO-TREX1 cells were cultured in RPMI 1640, 10% heat-inactivated fetal bovine serum, 25 mM HEPES, 10 μg/mL Blasticidin, and 100 μg/mL Zeocin. THP1-Dual™ KO-TREX1 cells were treated with a dose titration of test compound in the presence of 1 μM 5-aza-2′-deoxycytidine (Sigma, cat #189825). Type 1 Interferon and cell viability were assessed after five days of treatment.
Stock solution of test compound was prepared in DMSO followed by a three-fold dilution in DMSO. Additional 50× dilution was prepared in cell culture media for each dilution. 10 μL of diluted test compound was then added to a 384-well plate.
THP1-Dual™ KO-TREX1 cells were treated with 1 μM 5-aza-2′-deoxycytidine. THP1-Dual™ KO-TREX1 cells (50 μL) were added to each well of the 384-well plate containing test compound titration at 10,000 cells/well. Cells were incubated at 37° C., 5% CO2 in a humidified incubator for five days. On day five, 20 μL of cell supernatant was transferred to a 384-well, white-walled plate, followed by addition to each well of 50 μL of QUANTI-LUC solution containing stabilizer. Luminescence was detected on a plate reader according to manufacturer's instructions. […]

T1 sequence (O00370 whole entry, looked up): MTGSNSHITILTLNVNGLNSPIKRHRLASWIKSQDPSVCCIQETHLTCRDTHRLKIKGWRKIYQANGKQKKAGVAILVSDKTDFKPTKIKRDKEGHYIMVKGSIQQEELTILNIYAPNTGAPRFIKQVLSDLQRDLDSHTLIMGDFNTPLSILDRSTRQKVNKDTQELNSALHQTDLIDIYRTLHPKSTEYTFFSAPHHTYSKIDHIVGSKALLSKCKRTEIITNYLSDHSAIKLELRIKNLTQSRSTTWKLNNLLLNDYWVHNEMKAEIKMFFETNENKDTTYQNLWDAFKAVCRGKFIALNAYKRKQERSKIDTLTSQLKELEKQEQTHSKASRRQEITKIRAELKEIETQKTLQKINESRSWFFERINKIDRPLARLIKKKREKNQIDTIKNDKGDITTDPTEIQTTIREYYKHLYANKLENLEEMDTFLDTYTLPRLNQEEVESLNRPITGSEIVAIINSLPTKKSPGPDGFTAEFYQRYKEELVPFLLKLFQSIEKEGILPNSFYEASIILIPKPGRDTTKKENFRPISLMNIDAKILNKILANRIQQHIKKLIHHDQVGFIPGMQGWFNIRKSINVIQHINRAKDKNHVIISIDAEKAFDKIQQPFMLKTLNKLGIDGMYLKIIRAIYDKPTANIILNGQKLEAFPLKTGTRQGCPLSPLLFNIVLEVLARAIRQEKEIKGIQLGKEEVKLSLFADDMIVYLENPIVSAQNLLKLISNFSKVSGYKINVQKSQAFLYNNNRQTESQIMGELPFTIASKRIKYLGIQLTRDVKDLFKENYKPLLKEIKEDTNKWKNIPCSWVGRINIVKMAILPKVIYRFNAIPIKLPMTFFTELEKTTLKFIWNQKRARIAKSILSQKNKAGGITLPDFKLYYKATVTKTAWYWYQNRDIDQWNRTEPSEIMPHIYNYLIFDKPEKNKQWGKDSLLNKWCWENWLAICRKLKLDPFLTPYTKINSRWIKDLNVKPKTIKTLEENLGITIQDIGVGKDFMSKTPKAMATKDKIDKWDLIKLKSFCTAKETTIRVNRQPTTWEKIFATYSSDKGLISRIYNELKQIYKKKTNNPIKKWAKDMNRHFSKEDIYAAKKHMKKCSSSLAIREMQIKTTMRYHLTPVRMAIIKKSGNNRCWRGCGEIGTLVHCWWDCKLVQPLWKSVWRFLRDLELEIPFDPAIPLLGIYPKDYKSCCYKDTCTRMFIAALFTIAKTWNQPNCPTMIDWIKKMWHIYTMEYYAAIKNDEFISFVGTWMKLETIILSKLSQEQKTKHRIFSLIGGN

The IC50 is the concentration at which inhibition is half-maximal. Consider `C#C[C@]1(CO)O[C@@H](n2cnc3c(N)nc(F)nc32)C[C@@H]1O` [Islatravir, (2R,3S,5R)-5-(6-amino-2-fluoro-9H-purin-9-yl)-2-ethynyl-2-(hydroxymethyl)tetrahydrofuran-3-ol], for which the results for the IC50 in assay [1] and in assay [2] were 0.69 nM and not above 10 µM, respectively. For the same molecule, in assay [3], the “changes in IFN levels (% induction)” value was “induction of IFN”.
